Where two headings read alike, the source gives them in different places.
What was measured:
[1] = target: recombinant human GCPII protein (Homo sapiens, UniProt Q04609); assay: GCPII radioenzymatic activity assay; assay type: biochemical; conditions: read-out: IC50(±SEM)
[2] = Plasma stability of 2-PMPA prodrugs, human plasma; assay type: in vitro ADME; conditions: 10 μM, 37 °C
[3] = rats; for tissue/plasma ratio: AUC tissue/AUC plasma of 2-PMPA
[4] = rats; for tissue/plasma ratio: AUC tissue/AUC plasma of 2-PMPA; remark: listed apart in the source
GCPII = conditions: cited from earlier work
[5] = cited from earlier work
[6] = equivalent 2-PMPA administration, cited from earlier work
[7] = primates, IN 2-PMPA 30 mg/kg; cited from earlier work

Sequence of recombinant human GCPII protein (Q04609 whole entry): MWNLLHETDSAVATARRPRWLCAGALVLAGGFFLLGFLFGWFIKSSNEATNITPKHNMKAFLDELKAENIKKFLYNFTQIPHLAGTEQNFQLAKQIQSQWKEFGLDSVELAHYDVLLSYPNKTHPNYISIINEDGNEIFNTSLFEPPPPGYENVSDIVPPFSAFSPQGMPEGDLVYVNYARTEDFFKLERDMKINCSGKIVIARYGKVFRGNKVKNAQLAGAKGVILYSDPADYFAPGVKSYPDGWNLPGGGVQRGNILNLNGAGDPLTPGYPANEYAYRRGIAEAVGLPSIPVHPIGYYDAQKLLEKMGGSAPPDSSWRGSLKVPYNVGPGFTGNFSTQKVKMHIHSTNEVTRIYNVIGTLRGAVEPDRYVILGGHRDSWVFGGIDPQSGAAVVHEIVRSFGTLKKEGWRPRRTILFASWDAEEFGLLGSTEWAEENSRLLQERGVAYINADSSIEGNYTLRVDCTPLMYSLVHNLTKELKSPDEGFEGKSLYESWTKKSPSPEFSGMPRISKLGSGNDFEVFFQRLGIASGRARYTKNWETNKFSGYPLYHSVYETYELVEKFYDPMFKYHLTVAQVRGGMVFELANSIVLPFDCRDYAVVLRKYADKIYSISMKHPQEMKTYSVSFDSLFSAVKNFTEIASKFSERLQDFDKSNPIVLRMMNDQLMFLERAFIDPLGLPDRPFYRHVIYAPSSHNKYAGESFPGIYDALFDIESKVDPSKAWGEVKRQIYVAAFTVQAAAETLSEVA

Structure (SMILES): CC(=O)Oc1ccc(COC(=O)CCC(CP(=O)(O)O)C(=O)O)cc1 (stereo not shown) [Compound 1, γ-(4-acetoxybenzyl)-2-PMPA]
- IC50 [1]: 3 ± 0.2 nM
- Plasma stability % remaining @60 min Human [2]: 42%
- tissue/plasma ratio ([3]; cerebellum, IN): 0.26
- tissue/plasma ratio ([3]; olfactory bulb, IN): 2.2
- tissue/plasma ratio ([3]; plasma, IN): 1
- improvement of sciatic nerve to plasma ratio over free 2-PMPA ([3]; IN compound 1 versus equivalent dose of 2-PMPA): 7 fold
- intact prodrug AUC in plasma ([3]; IN, 10 mg/kg equivalent): 8.04 µM·h
- intact prodrug in brain or sciatic nerve ([3]; IN, any time point): No intact prodrug was quantifiable
- Cmax ([3]; read-out: intact prodrug Cmax in plasma, IN, 10 mg/kg equivalent): 22 µM
- tissue/plasma ratio ([3]; sciatic nerve, IN): 0.84
- tissue/plasma ratio ([4]; cerebellum, IV): 0.04
- fold lower 2-PMPA level after IV as compared to IN ([4]; cerebellum): 4 fold
- tissue/plasma ratio ([4]; cortex, IV): 0.04
- fold lower 2-PMPA level after IV as compared to IN ([4]; cortex): 4.5 fold
- tissue/plasma ratio ([4]; olfactory bulb, IV): 0.03
- tissue/plasma ratio ([4]; plasma, IV): 1
- intact prodrug in brain or sciatic nerve ([4]; IV, any time point): No intact prodrug was quantifiable
- Cmax ([4]; read-out: intact prodrug Cmax in plasma, IV, 10 mg/kg equivalent): 0.2 µM
- tissue/plasma ratio ([4]; sciatic nerve, IV): 0.21
- fold lower 2-PMPA level after IV as compared to IN ([4]; sciatic nerve): 5 fold

Structure (SMILES): O=C(O)CCC(CP(=O)(O)O)C(=O)O (stereo not shown) [Compound 2-PMPA, 2-(Phosphonomethyl)pentanedioic acid]
- oral bioavailability (F) [5]: < 2%
- plasma exposure (AUC) ([6]; IN route): 79.1 µM·h
- plasma exposure (AUC) ([6]; intraperitoneal (IP) route): 77.1 µM·h

Structure (SMILES): CCCCOC(=O)CCC(CP(=O)(O)O)C(=O)O (stereo not shown) [Compound 3]
- IC50 ([1]; GCPII inhibition): 1 ± 0.1 nM

Structure (SMILES): O=C(CCC(CP(=O)(O)O)C(=O)O)OCc1ccccc1 (stereo not shown) [Compound 4]
- IC50 ([1]; GCPII inhibition): 20 ± 1 nM

Structure (SMILES): CCCCCCCCOC(=O)CCC(CP(=O)(O)O)C(=O)O (stereo not shown) [Compound 5]
- IC50 ([1]; GCPII inhibition): 2 ± 0.2 nM

— paper PMC5795618 (Molecular pharmaceutics, 2017)
